Data on four compounds can be found in PMC12648092 (Acta Pharmaceutica Sinica. B, 2025).

In general, IC50 refers to the concentration that gives 50% inhibition. Lower therefore signals inhibition by little substance.

Sequence of AChE (P22303 32-617 isoform P22303-2 limits assumed): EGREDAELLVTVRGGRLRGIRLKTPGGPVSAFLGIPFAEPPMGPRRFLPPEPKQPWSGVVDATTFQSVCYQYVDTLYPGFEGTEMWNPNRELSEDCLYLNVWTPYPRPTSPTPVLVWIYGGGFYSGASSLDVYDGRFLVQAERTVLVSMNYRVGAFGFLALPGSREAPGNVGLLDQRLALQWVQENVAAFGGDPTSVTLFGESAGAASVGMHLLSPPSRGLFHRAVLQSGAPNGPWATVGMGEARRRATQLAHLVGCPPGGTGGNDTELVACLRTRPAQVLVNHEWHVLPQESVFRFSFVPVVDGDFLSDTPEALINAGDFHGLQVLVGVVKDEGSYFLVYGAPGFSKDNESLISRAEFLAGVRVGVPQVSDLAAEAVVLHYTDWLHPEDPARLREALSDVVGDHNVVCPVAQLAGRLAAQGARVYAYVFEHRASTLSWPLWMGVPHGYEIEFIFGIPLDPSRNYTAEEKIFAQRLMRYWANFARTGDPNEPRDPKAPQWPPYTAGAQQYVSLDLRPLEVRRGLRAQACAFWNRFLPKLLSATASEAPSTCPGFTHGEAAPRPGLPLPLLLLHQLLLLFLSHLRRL

This experiment has as its target AChE (Homo sapiens, UniProt P22303). Put plainly: ROCMCBs.
The compound `O=C(O)[C@H]1O[C@@H](Oc2cc3oc(-c4ccccc4)cc(=O)c3c(O)c2O)[C@H](O)[C@@H](O)[C@@H]1O` [baicalin] returned an IC50 of 12.2 µM. In other words, the double-digit micromolar range.
Turning to `OCc1ccc(O[C@@H]2O[C@H](CO)[C@@H](O)[C@H](O)[C@H]2O)cc1` [gastrodin], the IC50 was 3.2 µM.
`COC(=O)C1=CO[C@@H](O[C@@H]2O[C@H](CO)[C@@H](O)[C@H](O)[C@H]2O)[C@@H]2C(CO)=CC[C@H]12` [geniposide]: half-maximal inhibition (IC50) was put at 8.3 µM.
With `CC[C@H]1CN2CC[C@]3(C(=O)Nc4ccccc43)[C@@H]2C[C@@H]1/C(=C\OC)C(=O)OC` [rhynchophylline] the figure was 66.3 µM.
